Source: patent publication US20160024086A1, “AZAINDOLE RETINOIC ACID RECEPTOR-RELATED ORPHAN RECEPTOR MODULATORS AND USES THEREOF” (INNOV17 LLC, priority 2014, published 2016)

How the values were obtained:
Format in all cases: cell-based
Details in all cases: 72 h; human CD4+ T cells under TH17-polarizing conditions, 3 days, supernatant ELISA
IL-22 = assay: Human TH17 cytokine inhibition as measured by ELISA (IL-22)
IL-17A = assay: Human TH17 cytokine inhibition as measured by ELISA (IL-17A)
Experimental: (§1) Human TH17 Cytokine Inhibition as Measured by ELISA
(§2) Peripheral blood mononuclear cells (PBMCs) were sourced from freshly prepared leukocyte enriched plasma (buffy coat) from healthy donors (New York Blood Center). PBMCs were isolated by density gradient centrifugation using Ficoll-Paque™ PLUS (GE Healthcare). Human CD4+ T cells were seeded into 96-well plates (5×10^4 cells/well) and activated with plate-bound anti-human (h)-CD3 antibody and soluble h-aCD28 (both at 1 ug/ml; eBioscience) and differentiated into TH17 cells with 20 ng/mL h-IL-6, 5 ng/mL h-TGF-β1, 10 ng/mL h-IL-23 (eBioscience) and 10 ng/mL IL-1β (Miltenyi Biotec) in serum-free TexMACS Medium (Miltenyi Biotec) supplemented with 1% Penicillin/Streptomycin (Lonza) for 3 days. CD4+ T cells propagated under TH17-polarizing conditions were cultured in the presence or absence of various concentrations of compounds with a final concentration of 0.1% DMSO. Supernatants were collected and stored at −20° C. until assayed for IL-17A, IL-17F and IL-21 levels by “Ready-Set-Go” ELISA kits (eBioscience) as per manufacturer's instructions. Endpoint absorbance was read at 450 nm using a microplate reader (Perkin Elmer).

IL-21 = assay: Human TH17 cytokine inhibition as measured by ELISA (IL-21)
Experimental: as §1, §2

IL-17F = assay: Human TH17 cytokine inhibition as measured by ELISA (IL-17F)
Experimental: as §1, §2

Measured: IC50

C[C@H]1C[C@H](Cn2ccc3nc(-c4cn[nH]c4)ccc32)CN1C(=O)CCc1ccccc1 (racemic) [Example 40, rac.-trans-1-(4-((5-(1H-pyrazol-4-yl)-1H-pyrrolo[3,2-b]pyridin-1-yl)methyl)-2-methylpyrrolidin-1-yl)-3-phenylpropan-1-one]
< 10 µM: all assays above

C[C@@H]1C[C@H](Cn2ccc3nc(-c4cn[nH]c4)ccc32)CN1C(=O)CCc1ccccc1 (racemic) [Example 41, rac.-cis-1-(4-((5-(1H-pyrazol-4-yl)-1H-pyrrolo[3,2-b]pyridin-1-yl)methyl)-2-methylpyrrolidin-1-yl)-3-phenylpropan-1-one]
< 10 µM: IL-17A | IL-21 | IL-17F

O=C(CCc1ccccc1)N1CCC(Cn2ccc3nc(-c4cn[nH]c4)ccc32)CC1 [Example 3, 1-(4-((5-(1H-pyrazol-4-yl)-1H-pyrrolo[3,2-b]pyridin-1-yl)methyl)piperidin-1-yl)-3-phenylpropan-1-one]
< 10 µM: IL-17A | IL-21 | IL-17F

O=C(CC1CCCCC1)N1CCC(Cn2ccc3nc(-c4cn[nH]c4)ccc32)CC1 [Example 4, 1-(4-((5-(1H-pyrazol-4-yl)-1H-pyrrolo[3,2-b]pyridin-1-yl)methyl)piperidin-1-yl)-2-cyclohexylethanone]
< 10 µM: IL-17A | IL-21 | IL-17F

O=C(Cc1ccccc1)N1CCC(Cn2ccc3nc(-c4cn[nH]c4)ccc32)CC1 [Example 7, 1-(4-((5-(1H-pyrazol-4-yl)-1H-pyrrolo[3,2-b]pyridin-1-yl)methyl)piperidin-1-yl)-2-phenylethanone]
< 10 µM: IL-17A | IL-21 | IL-17F

CC1(C)CC(Cn2ccc3nc(-c4cn[nH]c4)ccc32)CN1C(=O)c1ccccc1 (stereo not drawn) [Example 19, (4-((5-(1H-pyrazol-4-yl)-1H-pyrrolo[3,2-b]pyridin-1-yl)methyl)-2,2-dimethylpyrrolidin-1-yl)(phenyl)methanone]
< 10 µM: IL-17A | IL-21 | IL-17F

O=S(=O)(c1ccccc1)N1CCC(Cn2ccc3nc(-c4cn[nH]c4)ccc32)CC1 [Example 30, 1-((1-(phenylsulfonyl)piperidin-4-yl)methyl)-5-(1H-pyrazol-4-yl)-1H-pyrrolo[3,2-b]pyridine]
< 10 µM: all assays above

O=S(=O)(Cc1ccccc1)N1CCC(Cn2ccc3nc(-c4cn[nH]c4)ccc32)CC1 [Example 32, 1-((1-(benzylsulfonyl)piperidin-4-yl)methyl)-5-(1H-pyrazol-4-yl)-1H-pyrrolo[3,2-b]pyridine]
< 10 µM: all assays above
